Data taken from patent publication US11591355B2 (Peloton Therapeutics, Inc., priority 2017, dated 2023).

What follows are compounds tested against T1, Human CD73 (Homo sapiens, UniProt P21589) (assay: CD73 Enzyme Assay). Conditions: not given.
T1 construct: purchased R&D Systems; host or cells: CHO cells
T1 sequence (P21589 27-549): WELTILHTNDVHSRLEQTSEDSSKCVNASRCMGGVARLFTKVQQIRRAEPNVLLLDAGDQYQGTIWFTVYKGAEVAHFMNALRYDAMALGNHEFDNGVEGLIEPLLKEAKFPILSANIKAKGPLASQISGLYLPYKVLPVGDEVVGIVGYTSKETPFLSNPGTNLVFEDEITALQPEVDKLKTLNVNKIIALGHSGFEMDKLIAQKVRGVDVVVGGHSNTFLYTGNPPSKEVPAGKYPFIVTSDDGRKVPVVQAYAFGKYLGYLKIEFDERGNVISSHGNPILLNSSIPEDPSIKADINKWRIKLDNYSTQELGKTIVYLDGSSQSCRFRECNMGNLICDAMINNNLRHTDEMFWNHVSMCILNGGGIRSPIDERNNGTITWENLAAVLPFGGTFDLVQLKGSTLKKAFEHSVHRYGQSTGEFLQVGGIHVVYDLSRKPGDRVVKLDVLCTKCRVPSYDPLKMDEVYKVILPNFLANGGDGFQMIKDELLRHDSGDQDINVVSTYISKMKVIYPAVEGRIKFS
Assay type: biochemical

SMILES | IC50
CCOP(=O)(O)COC[C@H]1O[C@@H](n2cnc3c(NCc4ccccc4)ncnc32)[C@H](O)[C@@H]1O [Compound 7, [(2R,3S,4R,5R)-5-[6-(benzylamino)purin-9-yl]-3,4-dihydroxy-tetrahydrofuran-2-yl]-methoxymethyl-ethoxy-phosphinic acid] | > 1000 nM

Same assay, conditions: 0.25 nM hCD73, 25 μM AMP, kinetic read at 360 nm; read-out: CD73 Enzyme Assay IC50

SMILES | IC50
Nc1ncnc2c1ncn2[C@@H]1O[C@H](COCP(=O)(O)O)[C@@H](O)[C@H]1O [Compound 2, [(2R,3S,4R,5R)-5-(6-aminopurin-9-yl)-3,4-dihydroxy-tetrahydrofuran-2-yl]methoxymethyl-phosphonic acid] | > 1000 nM
CNc1nc(NCc2ccccc2)c2ncn([C@@H]3O[C@H](COCP(=O)(O)O)[C@@H](O)[C@H]3O)c2n1 [Compound 5, [(2R,3S,4R,5R)-5-[6-(benzylamino)-2-(methylamino)purin-9-yl]-3,4-dihydroxy-tetrahydrofuran-2-yl]methoxymethyl-phosphonic acid] | > 1000 nM
O=C(O)c1nc(NCc2ccccc2)c2ncn([C@@H]3O[C@H](COCP(=O)(O)O)[C@@H](O)[C@H]3O)c2n1 [Compound 6, 6-(benzylamino)-9-[(2R,3R,4S,5R)-3,4-dihydroxy-5-(phos-phonomethoxy-methyl)tetrahydro-furan-2-yl]purine-2-carboxylic acid] | > 1000 nM
O=P(O)(O)COC[C@H]1O[C@@H](n2cnc3c(NCc4ccccc4)nc(-c4ccccc4)nc32)[C@H](O)[C@@H]1O [Compound 8, [(2R,3S,4R,5R)-5-[6-(benzylamino)-2-phenyl-purin-9-yl]-3,4-dihydroxy-tetrahydrofuran-2-yl]methoxymethylphosphonic acid] | 100 to 1000 nM
O=P(O)(O)COC[C@H]1O[C@@H](n2cnc3c(NCc4ccccc4)nc(-c4cn[nH]c4)nc32)[C@H](O)[C@@H]1O [Compound 10, [(2R,3S,4R,5R)-5-[6-(benzylamino)-2-(1H-pyrazol-4-yl)purin-9-yl]-3,4-dihydroxy-tetrahydrofuran-2-yl]-methoxymethylphos-phonic acid] | 100 to 1000 nM
CNc1ncnc2c1ncn2[C@@H]1O[C@H](COCP(=O)(O)O)[C@@H](O)[C@H]1O [Compound 11, [(2R,3S,4R,5R)-3,4-dihydroxy-5-[6-(methylamino)purin-9-yl]tetrahydrofuran-2-yl]methoxymethyl-phosphonic acid] | > 1000 nM
O=P(O)(O)COC[C@H]1O[C@@H](n2cnc3c(NCCO)ncnc32)[C@H](O)[C@@H]1O [Compound 13, [(2R,3S,4R,5R)-3,4-dihydroxy-5-[6-(2-hydroxyethylamino)-purin-9-yl]tetrahydro-furan-2-yl]methoxy-methylphosphonic acid] | > 1000 nM
CC(C)Nc1nc(Cl)nc2c1ncn2[C@@H]1O[C@H](COCP(=O)(O)O)[C@H]2OC(C)(C)O[C@H]21 [Compound 14, [(3aR,4R,6R,6aR)-4-[2-chloro-6-(isopropyl-amino)purin-9-yl]-2,2-dimethyl-3a,4,6,6a-tetrahydrofuro[3,4-d] [1,3]dioxol-6-yl]-methoxymethylphos-phonic acid] | > 1000 nM
CCNc1ncnc2c1ncn2[C@@H]1O[C@H](COCP(=O)(O)O)[C@@H](O)[C@H]1O [Compound 17, [(2R,3S,4R,5R)-5-[6-(ethylamino)purin-9-yl]-3,4-dihydroxy-tetrahydrofuran-2-yl]-methoxymethylphos-phonic acid] | > 1000 nM
O=P(O)(O)COC[C@H]1O[C@@H](n2cnc3c(NCc4ccccn4)ncnc32)[C@H](O)[C@@H]1O [Compound 19, [(2R,3S,4R,5R)-3,4-dihydroxy-5-[6-(2-pyridylmethylamino)-purin-9-yl]tetrahydro-furan-2-yl]methoxy-methylphosphonic acid] | > 1000 nM
O=P(O)(O)COC[C@H]1O[C@@H](n2cnc3c(NCc4ccccc4)nc(Cc4ccccc4)nc32)[C@H](O)[C@@H]1O [Compound 22, [(2R,3S,4R,5R)-5-[2-benzyl-6-(benzyl-amino)purin-9-yl]-3,4-dihydroxy-tetrahydro-furan-2-yl]methoxy-methylphosphonic acid] | 100 to 1000 nM
O=P(O)(O)COC[C@H]1O[C@@H](n2cnc3c(NC4(c5ccccc5)CC4)ncnc32)[C@H](O)[C@@H]1O [Compound 23] | > 1000 nM
O=P(O)(O)COC[C@H]1O[C@@H](n2cnc3c(NC4CC4)ncnc32)[C@H](O)[C@@H]1O [Compound 24, [(2R,3S,4R,5R)-5-[6-(cyclopropylamino)-purin-9-yl]-3,4-dihydroxy-tetrahydro-furan-2-yl]methoxy-methylphosphonic acid] | > 1000 nM
NCCNc1ncnc2c1ncn2[C@@H]1O[C@H](COCP(=O)(O)O)[C@@H](O)[C@H]1O [Compound 25, [(2R,3S,4R,5R)-5-[6-(2-aminoethylamino)-purin-9-yl]-3,4-dihydroxy-tetrahydro-furan-2-yl]methoxy-methylphosphonic acid] | > 1000 nM
O=P(O)(O)COC[C@H]1O[C@@H](n2cnc3c(NCCCO)ncnc32)[C@H](O)[C@@H]1O [Compound 26, [(2R,3S,4R,5R)-3,4-dihydroxy-5-[6-(3-hydroxypropylamino)-purin-9-yl]tetrahydro-furan-2-yl]methoxy-methylphosphonic acid] | > 1000 nM
O=P(O)(O)COC[C@H]1O[C@@H](n2cnc3c(NCc4cccnc4)ncnc32)[C@H](O)[C@@H]1O [Compound 27, [(2R,3S,4R,5R)-3,4-dihydroxy-5-[6-(3-pyridylmethylamino)-purin-9-yl]tetrahydro-furan-2-yl]methoxy-methylphosphonic acid] | > 1000 nM
O=P(O)(O)COC[C@H]1O[C@@H](n2cnc3c(NCc4ccncc4)ncnc32)[C@H](O)[C@@H]1O [Compound 28, [(2R,3S,4R,5R)-3,4-dihydroxy-5-[6-(4-pyridylmethylamino)-purin-9-yl]tetrahydro-furan-2-yl]methoxy-methylphosphonic acid] | > 1000 nM
O=P(O)(O)COC[C@H]1O[C@@H](n2cnc3c(NCCc4ccccc4)ncnc32)[C@H](O)[C@@H]1O [Compound 29, [(2R,3S,4R,5R)-3,4-dihydroxy-5-[6-(2-phenylethylamino)-purin-9-yl]tetrahydro-furan-2-yl]methoxy-methylphosphonic acid] | 100 to 1000 nM
O=P(O)(O)COC[C@H]1O[C@@H](n2cnc3c(Nc4ccccc4)ncnc32)[C@H](O)[C@@H]1O [Compound 30, [(2R,3S,4R,5R)-5-(6-anilinopurin-9-yl)-3,4-dihydroxy-tetrahydro-furan-2-yl]methoxy-methylphosphonic acid] | > 1000 nM
CC(C)N(C)c1ncnc2c1ncn2[C@@H]1O[C@H](COCP(=O)(O)O)[C@@H](O)[C@H]1O [Compound 31] | > 1000 nM
CC(C)(C)Nc1ncnc2c1ncn2[C@@H]1O[C@H](COCP(=O)(O)O)[C@@H](O)[C@H]1O [Compound 33, [(2R,3S,4R,5R)-5-[6-(tert-butylamino)purin-9-yl]-3,4-dihydroxy-tetrahydrofuran-2-yl]-methoxymethylphos-phonic acid] | > 1000 nM
O=P(O)(O)COC[C@H]1O[C@@H](n2cnc3c(NC4CCC4)ncnc32)[C@H](O)[C@@H]1O [Compound 34, [(2R,3S,4R,5R)-5-[6-(cyclobutylamino)-purin-9-yl]-3,4-dihydroxy-tetrahydro-furan-2-yl]methoxy-methylphosphonic acid] | 100 to 1000 nM
O=P(O)(O)COC[C@H]1O[C@@H](n2cnc3c(NC4CCCCC4)ncnc32)[C@H](O)[C@@H]1O [Compound 35, [(2R,3S,4R,5R)-5-[6-(cyclohexylamino)-purin-9-yl]-3,4-dihydroxy-tetrahydro-furan-2-yl]methoxy-methylphosphonic acid] | 100 to 1000 nM
O=P(O)(O)COC[C@H]1O[C@@H](n2cnc3c2ncn2cnnc32)[C@H](O)[C@@H]1O [Compound 37] | > 1000 nM
O=P(O)(O)COC[C@H]1O[C@@H](n2cnc3c2ncn2ccnc32)[C@H](O)[C@@H]1O [Compound 38] | > 1000 nM
O=P(O)(O)COC[C@H]1O[C@@H](n2cnc3c(NCc4ccccc4)nc(C4CC4)nc32)[C@H](O)[C@@H]1O [Compound 39, [(2R,3S,4R,5R)-5-[6-(benzylamino)-2-cyclopropyl-purin-9-yl]-3,4-dihydroxy-tetrahydrofuran-2-yl]-methoxymethyl phos-phonic acid] | > 1000 nM
C=Cc1nc(NC(C)C)c2ncn([C@@H]3O[C@H](COCP(=O)(O)O)[C@@H](O)[C@H]3O)c2n1 [Compound 40, [(2R,3S,4R,5R)-3,4-dihydroxy-5-[6-(iso-propylamino)-2-vinyl-purin-9-yl]tetrahydro-furan-2-yl]methoxy-methylphosphonic acid] | 100 to 1000 nM
CCc1nc(NC(C)C)c2ncn([C@@H]3O[C@H](COCP(=O)(O)O)[C@@H](O)[C@H]3O)c2n1 [Compound 41, [(2R,3S,4R,5R)-5-[2-ethyl-6-(isopropyl-amino)purin-9-yl]-3,4-dihydroxy-tetrahydro-furan-2-yl]methoxy-methylphosphonic acid] | > 1000 nM
O=c1c2ncn([C@@H]3O[C@H](COCP(=O)(O)O)[C@@H](O)[C@H]3O)c2ncn1Cc1ccccc1 [Compound 42, [(2R,3S,4R,5R)-5-(1-benzyl-6-oxo-purin-9-yl)-3,4-dihydroxy-tetrahydrofuran-2-yl]-methoxymethylphos-phonic acid] | > 1000 nM
CC(C)Oc1ncnc2c1ncn2[C@@H]1O[C@H](COCP(=O)(O)O)[C@@H](O)[C@H]1O [Compound 44, [(2R,3S,4R,5R)-3,4-dihydroxy-5-(6-isopropoxypurin-9-yl)tetrahydrofuran-2-yl]methoxymethylphosphonic acid] | > 1000 nM
